From US11591297B2, “Compound having PD-L1 expression-suppressing action” (TOHOKU UNIVERSITY, priority 2019, dated 2023)
Where two headings read alike, the source gives them in different places.

Assays:
PD-L1 = test: Inhibitory effect of PD-L1 expression by cell staining with anti-PD-L1 antibody in IFN-γ-treated THP-1 cells (flow cytometry); type: cell-based; details: Homo sapiens, IFN-γ 25 ng/mL, 24±2 hours, subMFI anti-CD274-PC7, read-out: IC50 (50% PD-L1 expression inhibition concentration)
Procedure: The inhibitory effects of each compound of Examples 1 to 6 on the PD-L1 expression were evaluated according to the following procedures.
(1) Acute monocytic leukemia cell-derived THP-1 cells were suspended in RPMI medium containing 10% FCS and 1% P/S (hereinafter, referred to as “RPMI medium”) at 5×10^5 cells/mL to obtain a cell suspension, and the cell suspension was dispensed into each well of a 6 well-plate in an amount of 3 mL. In order to activate the THP-1 cells and express PD-L1 in the cells, IFN-γ (PEPROTECH, Cat. No. 300-02-100UG, >2e+7 U/mg) was added into each well at a concentration of 25 ng/mL (>500 U/mL). 50 mmol/L of the test compound solution was diluted with the medium (usually, in the range of 0.025 mmol/L to 1 mmol/L), and the diluted solution was added into each well in an amount of 60 μL. The plate was incubated in a CO2 incubator (at 37° C. and 5% CO2) for 24±2 hours. In the control group, only DMSO was added in place of the test compound. (2) A part of the prepared cell culture liquid was collected and the number of cells therein was counted using a cell counter (BIORAD TC-20). The cell culture liquid was centrifuged at 300×g for 5 minutes and the supernatant of the cell culture liquid was removed. The cells were suspended in calcium and magnesium free phosphate buffered saline (PBS−) containing 1% bovine serum albumin (BSA) at a cell concentration of 1 to 2×10^7 cells/mL to prepare a cell suspension. (3) Each cell suspension prepared in the above step (2) were added into a 5 mL tube in an amount of 25 μL. 2 μL of 2% normal mouse serum/PBS− was added into tubes, and the tubes were gently pipetted. The tubes were then allowed to stand at room temperature for 15 minutes. (4) Anti-CD274-PC7 antibody (BECKMAN COULTER, Cat. No. A78884) or mouse IgG1-PC7 antibody (BECKMAN COULTER, 737662) as control was added in each tube in an amount of 10 μL, and the tubes were gently stirred. The tubes were then allowed to stand in the dark on an ice bath for 30 minutes. (5) Foxp3/Transcription Factor Fix/Perm Concentrate (4×) (Cat. No. TNB-1020-L050) (A solution) supplied in FOXP3/Transcription Factor Staining kit (TONBO biosciences) was diluted in Foxp3/Transcription Factor Fix/Perm Diluent (1×) (Cat. No. TNB-1022-L160) (A dilution solution) to prepare a 1×A solution. (6) The 1×A solution was added into each tube in an amount of 1 mL, and the tubes were gently pipetted and stirred. The tubes were then allowed to stand in the dark at room temperature for 30 minutes and centrifuged at 300×g for 5 minutes, and then the supernatants therein were removed. (7) 2 mL of 1% BSA/PBS− was added into each tube and the tubes were gently stirred and centrifuged at 300×g for 5 minutes, and then the supernatants therein were removed. (8) The cells therein were suspended in 0.5 mL of 1% BSA/PBS- and measured with a flow cytometer (Sony: Cell Sorter SH800) within 2 hours. The results were analyzed with a software, FlowJo (Tree Star Inc.). The mean peak fluorescence intensity (MFI) of PD-L1 and mean peak fluorescence intensity of IgG1 were calculated from histograms of the measured fluorescence intensity and number of cells, and the mean fluorescence intensity of IgG1 was subtracted from that of PD-L1 to calculate the subMFI. The experiments were performed in n=2.
The subMFI values of the control cells calculated by the FlowJo analysis and the cells cultured with the addition of the test compounds at each concentration (test cells) were input into an Excel file, and the percentages of the subMFI values of the test cells at each concentration to the average subMFI value of control cells were calculated. The regression line was determined from the percentages of the subMFI values of the test cells at each concentration by the method of least squares to calculate the 50% PD-L1 expression inhibition concentration (IC50 value) of each compound.

human PD-L1 promoter = test: Inhibitory effect of luciferase expression under control of PD-L1 promoter (A549/PD-L1luc luciferase assay, corrected by total protein); type: cell-based; details: A549/PD-L1luc cells, 48±4 hours, RLU corrected by total protein amount, read-out: IC50 (50% inhibition value of luciferase expression)
Excerpt: A reporter vector, pPD-L1luc obtained by the insertion of a human PD-L1 promoter sequence (−2097 to 51) into the multiple cloning site of pGL-3 vector basic (Promega) expresses luciferase under the control of PD-L1 promoter when transfected into animal cells. The pPD-L1luc was transfected into a human non-small cell lung cancer-derived cell line A549 together with pPUR (Clontech) that expresses a puromycin resistance gene (puromycin-N-acetyl-transferase gene), and then cells expressing luciferase which could grow in a puromycin-supplemented medium were selected. The selected cells were named “A549/PD-L1luc cells” and used for luciferase assay as described below.
A test compound was added into a culture liquid containing A549/PD-L1luc cells to observe the influence of the test compound on the amount of luciferase expressed in the cells. Here, it can be considered that when the test compound has a cell cytotoxicity or cell growth inhibitory effect, the total expression level of luciferase is recued due to a reduction in the number of living cells that depends on the concentration of the test compound, and thus the inhibitory effect of luciferase expression under the control of PD-L1 promoter of the test compound cannot be properly evaluated.
A549/PD-L1luc cells were suspended in DMEM containing 10% fetal calf serum (FCS) and 1% penicillin/streptomycin (P/S) (hereinafter, referred to as “DMEM medium”) at 3×10^4 cells/mL to obtain a cell suspension, and the cell suspension was dispensed into each well of a 96-well plate in an amount of 100 μL. In order to perform the assay in triplicate, 3 wells were prepared for control group, and 3 wells were prepared for test compound-treated groups at each concentration. After the dispensation, the 96-well plate was incubated in a CO2 incubator (at 37° C. and 5% CO2) for 24±4 hours.
Each compound of Examples 1 to 6 and Comparative Example 1 was dissolved in dimethylsulfoxide (DMSO) to obtain 50 mmol/L of a compound solution, and the compound solution was stored at −80° C. The compound solution was diluted with DMSO in 2-fold dilution series (usually, in the range of 0.04 mmol/L to 10 mmol/L) to prepare test compound solutions whose concentration varied by two fold for luciferase assay.
Each solution of only DMSO (control) and the diluted test compound (sample) was dispensed into each well containing the cell suspension in an amount of 0.5 μL (200-fold dilution). The solution in each well was mixed with a vortex mixer, and then the 96-well plate was incubated in a CO2 incubator (at 37° C. and 5% CO2) for 48±4 hours. Luciferase Assay Substrate (hereinafter, referred to as “LAS”) supplied in Luciferase Assay Systems (Promega: Cat #E1500) was dissolved in Luciferase Assay Buffer (LAB) to prepare a luciferase reagent. 5× Cell Culture Lysis Reagent (hereinafter, referred to as “CCLR”) was diluted by 5 times with water to prepare 1×CCLR.
After the incubation for 48±4 hours, the medium in each well was completely removed, and 1×CCLR was dispensed into each well in an amount of 50 μL. The plate was allowed to stand at room temperature for 30 minutes, and then 1×CCLR in each well was used as an assay sample for luciferase and total protein amount. The luciferase reagent (100 μL) was placed in a tube for chemiluminescence measurement assay, and the assay sample (20 μL) was added into the tube and mixed with the luciferase reagent to measure chemiluminescence (Relative Luminescence Intensity: RLU) using GloMax 20/20 (Promega).
The above-mentioned assay sample (10 μL) was diluted by 10 times with water (90 μL). Each calibration curve sample was prepared by diluting the BSA solution with water as described in Table 1.
BCA reagent A and BCA reagent B (50:1) supplied in a kit for protein assay were mixed to prepare Working Reagent. Each of the calibration curve samples (Vials I to VI) and the 10-fold diluted assay samples was dispensed into each well of a 96-well plate in an amount of 25 μL, respectively. […]

Row | IC50 (PD-L1) | IC50 (human PD-L1 promoter; Homo sapiens) | Compound | IC50 (human PD-L1 promoter)
1 | 1900 nM | 1300 nM | O=C(Nc1ccc(Oc2ccc(C(F)(F)F)cc2)cc1)C1CCCN(C(=O)c2ccc(O)cc2)C1 (centres unmarked) [Example 1, 1-(4-Hydroxybenzoyl)-N-(4-(4-(trifluoromethyl)phenoxy)phenyl)piperidine-3-carboxamide] | 
2 | 1200 nM | 1200 nM | O=C(Nc1ccc(Oc2ccc(S(F)(F)(F)(F)F)cc2)cc1)C1CCCN(C(=O)c2ccc(O)cc2)C1 (centres unmarked) [Example 4] | 
3 |  |  | N-(3-(4-Chlorophenoxy)phenyl)-1-(4-hydroxyphenylcarbonyl) piperidine-3-carboxamide [Comparative Example 1, reference compound] | 14100 nM
